Structures can show the parent of a compound that is named as a salt.
Columns and labels:
Human recombinant MMP-13 = biological target: T1, Human recombinant MMP-13 (Homo sapiens, UniProt P45452); assay: In vitro MMP inhibition assay, MMP-13 (fluorogenic peptide substrate cleavage, Ki); assay type: biochemical; settings: human MMP-13, full length (FL); read-out: hMMP Ki 13/FL
T1 construct: made in house; host or cells: baculovirus expression (insect cells)
Method: (§1) Matrix Metalloproteinase inhibitor compounds were analyzed in in vitro MMP Inhibition assays to determine their ability to inhibit the MMP cleavage of peptide substrates. Inhibition constants (Ki) were calculated from the assayed compound-MMP interactions.
(§2) Human recombinant MMP-1, MMP-2, MMP-3, MMP-7, MMP-9, MMP-12, MMP-13, MMP-14 and MMP-15 were used in these assays. The enzymes are prepared following known laboratory procedures. Protocols for the preparation and use of these enzymes are available in the scientific literature. See, e.g., Enzyme Nomenclature (Academic Press, San Diego, Calif., 1992) and the citations therein. See also Frije et al., J. Biol. Chem., 26(24), 16766-73 (1994).
The MMP-13 may be obtained as a proenzyme from a full-length cDNA clone using baculovirus expression, as described by V. A. Luckow, “Insect Cell Expression Technology,” Protein Engineering: Principles and Practice, pp. 183-218 (edited by J. L. Cleland et al., Wiley-Liss, Inc., 1996). The expressed proenzyme was first purified over a heparin agarose column, and then over a chelating zinc chloride column. Further details on baculovirus expression systems may be found in, for example, Luckow et al., J. Virol., 67, 4566-79 (1993). See also O'Reilly et al, Baculovirus Expression Vectors: A Laboratory Manual (W. H. Freeman and Co., New York, N.Y., 1992). See also King et al., The Baculovirus Expression System: A Laboratory Guide (Chapman & Hall, London, England, 1992).
All full length MMPs were activated using 4-aminophenylmercuric acetate (“APMA”, Sigma Chemical, St. Louis, Mo.) or trypsin. MMP-9 also was activated using human recombinant MMP-3 following standard cloning and purification techniques.
The fluorogenic, methoxycoumarin-containing polypeptide substrate MCA-ArgProLeuGlyLeuDpaAlaArgGluArgNH2 was used as the MMP substrate in the MMP inhibition assays for human recombinant MMP-1, MMP-2, MMP-7, MMP-9, MMP-12, MMP-13, MMP-14 and MMP-15. Here, “MCA” is 7-methoxycoumarin-4-yl acetyl and “Dpa” is 3-(2,4-dinitrophenyl)-L-2,3-di-aminopropionyl group. In the absence of MMP inhibitory activity, the substrate is cleaved at the Gly-Leu peptide bond. The cleavage separates the highly fluorogenic peptide from the 2,4-dinitrophenyl quencher, resulting in an increase of fluorescent intensity.
For the human MMP-1, MMP-2, MMP-7, MMP-9, MMP-12, MMP-13, MMP-14 and MMP-15 assays, dilutions of the inhibitors (or salts thereof) were prepared in 100% dimethyl sulfoxide (DMSO). The stock solutions were diluted in Buffer A (100 mM Tris-HCl, 100 mM NaCl, 10 mM CaCl2, 0.005% polyoxyethylene 23 lauryl ether, pH 7.5) to obtain solutions with different compound concentrations, i.e., assay solutions with different concentrations of the assayed MMP inhibitory compound in 1% DMSO. The experiment controls contained the same amount of Buffer A/DMSO as the assayed sample, but contained no inhibitor.
(§3) To determine Ki, the inhibitor samples are incubated at room temperature for 1 hr in the presence of enzyme and then 4 μM of appropriate MMP substrate was added, and samples were analyzed on a Tecan SpectraFlour Plus plate reader. The excitation wavelength is 330 nm, and the emission (fluorescence) wavelength is 420 nm. In the absence of MMP inhibitory activity, the substrate is cleaved at the Gly-Leu bond resulting in an increase of relative fluorescence. Inhibition is observed as a reduced rate of increase in relative fluorescence.
The inhibitors are analyzed using a single low enzyme concentration with a single substrate concentration fixed at or below the Km. This protocol is a modification of method by Knight et al., FEBS Lett., 296(3), 263-266 (1992). Apparent inhibitory constants are determined by non-linear regression of reaction velocity as a function of inhibitor and enzyme concentration using Morrison's equation, as described by Kuzmic, Anal. Biochem. 286, 45-50 (2000). […]

[1] = biological target: T2, catalytic domain of human recombinant MMP-3 (Homo sapiens, UniProt P08254); assay: In vitro MMP inhibition assay, MMP-3 catalytic domain (fluorogenic peptide substrate cleavage, Ki); assay type: biochemical; settings: human MMP-3, catalytic domain (CD); read-out: hMMP Ki 03/CD
T2 construct: made in house
Method: as §1, §2
The catalytic domain MMP-3 cDNA may be used to express the catalytic domain enzyme in E. coli inclusion bodies. Then the enzyme is solubilized in urea, purified on a preparative […] reverse phase HPLC column, and refolded in the presence of zinc acetate and purified for use.
The fluorogenic, methoxycoumarin-containing polypeptide substrate Mca-Arg-Pro-Lys-Pro-Val-Glu-Nva-Trp-Arg-Lys(Dnp)-NH2 (Bachem catalog number M-2110) was used as the MMP substrate in the MMP inhibition assays for catalytic domain of human recombinant MMP-3 (which refers to the catalytic domain of stromelysin). Here, “MCA” is 7-methoxycoumarin-4-yl acetyl and “Dpa” is 3-(2,4-dinitrophenyl)-L-2,3-di-aminopropionyl group. In the absence of MMP inhibitory activity, the substrate is cleaved at the Gly-Leu peptide bond. The cleavage separates the highly fluorogenic peptide from the 2,4-dinitrophenyl quencher, resulting in an increase of fluorescent intensity.
For the human MMP-3 assay, dilutions of the inhibitors (or salts thereof) were prepared in 100% DMSO. The stock solutions were diluted in Buffer B (50 mM N-morpholinoethane sulfonate (“MES”), 100 mM NaCl, 10 mM CaCl2, 0.005% polyoxyethylene 23 lauryl ether, pH 6.0)) to obtain solutions with different compound concentrations, i.e., assay solutions with different concentrations of the assayed MMP inhibitory compound in 1% DMSO. The experiment controls contained the same amount of Buffer B/DMSO as the assayed sample, but contained no inhibitor.
as §3
The inhibitors are analyzed using a single low enzyme concentration with a single substrate concentration fixed at or below the Km. This protocol is a modification of method by Knight et al., FEBS Lett., 296(3), 263-266 (1992). Apparent inhibitory constants are determined by non-linear regression of reaction velocity as a function of inhibitor and enzyme concentration using Morrison's equation, as described by Kuzmic, Anal. Biochem. 286, 45-50 (2000). Modifications were made in the non-linear regression method to allow a common control reaction rate and effective enzyme concentration to be shared between all dose-response relationships on a given assay plate. Since the substrate concentration was chosen to be at or below the Km, the apparent Ki's from this analysis were reported as Ki's without correction for the influence of substrate.

T2 sequence (P08254 100-272 limits assumed): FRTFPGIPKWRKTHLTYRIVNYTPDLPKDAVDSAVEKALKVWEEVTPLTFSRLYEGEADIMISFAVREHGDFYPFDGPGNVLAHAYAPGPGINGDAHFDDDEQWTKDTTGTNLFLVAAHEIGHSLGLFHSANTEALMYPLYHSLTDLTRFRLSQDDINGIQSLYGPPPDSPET

Structure (SMILES) | Ki (Human recombinant MMP-13) [µM] | Ki [1] [µM]
COc1cccc(CNC(=O)c2nc3ccc(F)c(OC[C@H]4CO[C@H](CO)CO4)c3c(=O)[nH]2)c1 (relative stereo) [Example 3, 6-Fluoro-5-{[(trans-2,5)-5-(hydroxymethyl)-1,4-dioxan-2-yl]methoxy}-N-(3-methoxybenzyl)-4-oxo-3,4-dihydroquinazoline-2-carboxamide] | 0.0164 | 8.58
COc1cccc(CNC(=O)c2nc3scc(COC[C@@H]4CO[C@@H](C(=O)O)CO4)c3c(=O)[nH]2)c1 (relative stereo) [Example 8, Trans-5-(((2-((3-Methoxybenzyl)carbamoyl)-4-oxo-3,4-dihydrothieno[2,3-d]pyrimidin-5-yl)methoxy)methyl)-1,4-dioxane-2-carboxylic acid] | 0.00416 | 1.31
COc1cc(CNC(=O)c2nc3scc(COC[C@@H]4CO[C@@H](C(N)=O)CO4)c3c(=O)[nH]2)ccc1F (relative stereo) [Example 15, N-(4-Fluoro-3-methoxybenzyl)-5-(((trans-5-carbamoyl-1,4-dioxan-2-yl)methoxy)methyl)-4-oxo-3,4-dihydrothieno[2,3-d]pyrimidine-2-carboxamide] | 0.00404 | 0.96
COc1cccc(CNC(=O)c2nc3ccc(F)c(OC[C@@H]4CO[C@@H](CN)CO4)c3c(=O)[nH]2)c1 (relative stereo) [Example 36, 5-{[(trans 2,5)-5-(aminomethyl)-1,4-dioxan-2-yl]methoxy}-6-fluoro-N-(3-methoxybenzyl)-4-oxo-3,4-dihydroquinazoline-2-carboxamide] | 0.0199 | 
COc1cc(CNC(=O)c2nc3scc(COC[C@H]4CC[C@H](C(=O)O)CC4)c3c(=O)[nH]2)ccc1F [Example 10, Trans-4-(((2-((4-Fluoro-3-methoxybenzyl)carbamoyl)-4-oxo-3,4-dihydrothieno[2,3-d]pyrimidin-5-yl)methoxy)methyl)cyclohexanecarboxylic acid] | 0.000143 | 0.163
COc1cc(CNC(=O)c2nc3scc(COC[C@H]4CC[C@H](C(N)=O)CC4)c3c(=O)[nH]2)ccc1F [Example 13, N-(4-Fluoro-3-methoxybenzyl)-5-(((trans-4-carbamoylcyclohexyl)methoxy)methyl)-4-oxo-3,4-dihydrothieno[2,3-d]pyrimidine-2-carboxamide] | 0.000141 | 0.258
COc1cccc(CNC(=O)c2nc3scc(COCCC4CCNCC4)c3c(=O)[nH]2)c1 [Example 26, N-(3-methoxybenzyl)-4-oxo-5-[(2-piperidin-4-ylethoxy)methyl]-3,4-dihydrothieno[2,3-d]pyrimidine-2-carboxamide hydrochloride] | 0.00928 | 

Second part, the molecule after the results:

Ki (Human recombinant MMP-13) [µM] | Ki [1] [µM] | Structure (SMILES)
0.011 | 0.663 | COc1cc(CNC(=O)c2nc3scc(COC[C@@H]4CO[C@@H](CO)CO4)c3c(=O)[nH]2)ccc1F (relative stereo) [Example 11, N-(4-Fluoro-3-methoxybenzyl)-5-(((trans-5-(hydroxymethyl)-1,4-dioxan-2-yl)methoxy)methyl)-4-oxo-3,4-dihydrothieno[2,3-d]pyrimidine-2-carboxamide]
0.00162 | 0.668 | COc1cc(CNC(=O)c2nc3scc(COC[C@@H]4CO[C@@H](C(=O)O)CO4)c3c(=O)[nH]2)ccc1F (relative stereo) [Example 12, Trans-5-(((2-((4-Fluoro-3-methoxybenzyl)carbamoyl)-4-oxo-3,4-dihydrothieno[2,3-d]pyrimidin-5-yl)methoxy)methyl)-1,4-dioxane-2-carboxylic acid]
0.013 |  | COc1cccc(CNC(=O)c2nc3scc(COC[C@H]4CC[C@H](N)CC4)c3c(=O)[nH]2)c1 [Example 1, 5-({[trans-4-Aminocyclohexyl]methoxy}methyl)-N-(3-methoxybenzyl)-4-oxo-3,4-dihydrothieno[2,3-d]pyrimidine-2-carboxamide]
0.000471 | 0.337 | COc1cccc(CNC(=O)c2nc3scc(COC[C@H]4CC[C@H](CO)CC4)c3c(=O)[nH]2)c1 [Example 4, N-(3-methoxybenzyl)-5-(((trans-4-(hydroxymethyl)cyclohexyl)methoxy)methyl)-4-oxo-3,4-dihydrothieno[2,3-d]pyrimidine-2-carboxamide]
0.000221 | 0.389 | COc1cccc(CNC(=O)c2nc3scc(COC[C@H]4CC[C@H](C(=O)O)CC4)c3c(=O)[nH]2)c1 [Example 5, Trans-4-(((2-((3-Methoxybenzyl)carbamoyl)-4-oxo-3,4-dihydrothieno[2,3-d]pyrimidin-5-yl)methoxy)methyl)cyclohexanecarboxylic acid]
0.000747 | 0.468 | COc1cccc(CNC(=O)c2nc3scc(COC[C@H]4CC[C@H](C#N)CC4)c3c(=O)[nH]2)c1 [Example 6, N-(3-Methoxybenzyl)-5-(((trans-4-cyanocyclohexyl)methoxy)methyl)-4-oxo-3,4-dihydrothieno[2,3-d]pyrimidine-2-carboxamide]
0.000479 | 0.35 | COc1cc(CNC(=O)c2nc3scc(COC[C@H]4CC[C@H](C#N)CC4)c3c(=O)[nH]2)ccc1F [Example 14, N-(4-Fluoro-3-methoxybenzyl)-5-(((trans-4-cyanocyclohexyl)methoxy)methyl)-4-oxo-3,4-dihydrothieno[2,3-d]pyrimidine-2-carboxamide]
0.00041 | 0.533 | COc1cccc(CNC(=O)c2nc3scc(COC[C@H]4CC[C@H](NS(C)(=O)=O)CC4)c3c(=O)[nH]2)c1 [Example 16, N-(3-Methoxybenzyl)-5-[({trans-4-[(methylsulfonyl)amino]cyclohexyl}methoxy)methyl]-4-oxo-3,4-dihydrothieno[2,3-d]pyrimidine-2-carboxamide]

Reference: patent publication US20110009435A1, “HETERO BICYCLIC CARBOXAMIDE DERIVATIVES AND THEIR PHARMACEUTICAL USE AND COMPOSITIONS” (Pfizer, Inc., priority 2007, published 2011)
